Assay type in all cases: binding
The target of assay [1] is T1, HeLa cell extract proteins (Homo sapiens, UniProt P52298).
T1 construct: endogenous in cells; host or cells: HeLa cell extract
T1 sequence (P52298 1-156): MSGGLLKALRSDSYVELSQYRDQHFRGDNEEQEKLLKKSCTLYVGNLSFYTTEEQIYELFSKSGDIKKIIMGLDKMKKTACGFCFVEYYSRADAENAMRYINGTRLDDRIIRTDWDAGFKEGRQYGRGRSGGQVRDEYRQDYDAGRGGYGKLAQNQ

In assay [2] the target is T2, HeLa cell extract proteins (Homo sapiens, UniProt Q92499).
T2 construct: endogenous in cells; host or cells: HeLa cell extract
T2 sequence (Q92499 1-740): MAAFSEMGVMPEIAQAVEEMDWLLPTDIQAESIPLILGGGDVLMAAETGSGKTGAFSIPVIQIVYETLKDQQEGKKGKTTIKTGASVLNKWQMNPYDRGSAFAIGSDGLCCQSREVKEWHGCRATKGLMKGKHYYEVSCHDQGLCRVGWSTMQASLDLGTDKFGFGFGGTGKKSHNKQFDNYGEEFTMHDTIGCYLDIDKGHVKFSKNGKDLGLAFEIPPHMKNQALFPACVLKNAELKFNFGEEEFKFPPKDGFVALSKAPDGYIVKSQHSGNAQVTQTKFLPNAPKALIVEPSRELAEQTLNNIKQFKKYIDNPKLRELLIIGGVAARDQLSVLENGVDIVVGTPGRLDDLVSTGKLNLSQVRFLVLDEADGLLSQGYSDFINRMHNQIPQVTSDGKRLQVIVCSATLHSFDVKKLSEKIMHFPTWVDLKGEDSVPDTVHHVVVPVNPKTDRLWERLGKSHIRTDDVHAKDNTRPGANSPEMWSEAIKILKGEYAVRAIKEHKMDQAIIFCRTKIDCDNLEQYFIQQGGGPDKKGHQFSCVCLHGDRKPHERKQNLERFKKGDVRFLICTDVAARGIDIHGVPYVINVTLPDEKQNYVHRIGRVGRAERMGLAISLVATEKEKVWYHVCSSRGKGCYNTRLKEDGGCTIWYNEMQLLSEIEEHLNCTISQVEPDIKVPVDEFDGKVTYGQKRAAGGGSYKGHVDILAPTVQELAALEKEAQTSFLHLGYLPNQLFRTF

Assay [3] addresses T3, HeLa cell extract proteins (Homo sapiens, UniProt P14866).
T3 construct: endogenous in cells; host or cells: HeLa cell extract
T3 sequence (P14866 1-589): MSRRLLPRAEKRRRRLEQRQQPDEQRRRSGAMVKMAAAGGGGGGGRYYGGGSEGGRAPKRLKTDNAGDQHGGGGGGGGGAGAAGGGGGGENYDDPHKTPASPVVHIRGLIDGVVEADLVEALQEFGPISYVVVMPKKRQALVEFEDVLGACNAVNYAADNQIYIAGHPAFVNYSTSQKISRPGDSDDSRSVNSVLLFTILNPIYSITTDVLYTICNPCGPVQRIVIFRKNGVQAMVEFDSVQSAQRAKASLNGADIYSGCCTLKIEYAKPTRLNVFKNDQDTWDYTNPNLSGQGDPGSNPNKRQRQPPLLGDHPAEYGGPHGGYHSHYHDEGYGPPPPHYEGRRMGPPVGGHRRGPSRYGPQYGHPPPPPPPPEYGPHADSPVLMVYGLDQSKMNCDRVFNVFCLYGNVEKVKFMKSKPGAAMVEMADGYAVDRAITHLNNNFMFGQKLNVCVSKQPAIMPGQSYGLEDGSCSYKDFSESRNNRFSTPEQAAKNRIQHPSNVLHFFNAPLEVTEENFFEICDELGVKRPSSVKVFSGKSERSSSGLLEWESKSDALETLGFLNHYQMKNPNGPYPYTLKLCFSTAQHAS
As to conditions: protein HNRNPL; HeLa.

The target of assay [4] is T4, HeLa cell extract proteins (Homo sapiens, UniProt P25786).
T4 construct: endogenous in cells; host or cells: HeLa cell extract
The following applies: protein PSMA1; HeLa.

Assay [5] concerns the target T5, HeLa cell extract proteins (Homo sapiens, UniProt P60953).
T5 construct: endogenous in cells; host or cells: HeLa cell extract
As to conditions: protein CDC42; HeLa.

The target in assay [6] is T6, HeLa cell extract proteins (Homo sapiens, UniProt Q9NQC3).
T6 construct: endogenous in cells; host or cells: HeLa cell extract
T6 sequence (Q9NQC3 1-1192): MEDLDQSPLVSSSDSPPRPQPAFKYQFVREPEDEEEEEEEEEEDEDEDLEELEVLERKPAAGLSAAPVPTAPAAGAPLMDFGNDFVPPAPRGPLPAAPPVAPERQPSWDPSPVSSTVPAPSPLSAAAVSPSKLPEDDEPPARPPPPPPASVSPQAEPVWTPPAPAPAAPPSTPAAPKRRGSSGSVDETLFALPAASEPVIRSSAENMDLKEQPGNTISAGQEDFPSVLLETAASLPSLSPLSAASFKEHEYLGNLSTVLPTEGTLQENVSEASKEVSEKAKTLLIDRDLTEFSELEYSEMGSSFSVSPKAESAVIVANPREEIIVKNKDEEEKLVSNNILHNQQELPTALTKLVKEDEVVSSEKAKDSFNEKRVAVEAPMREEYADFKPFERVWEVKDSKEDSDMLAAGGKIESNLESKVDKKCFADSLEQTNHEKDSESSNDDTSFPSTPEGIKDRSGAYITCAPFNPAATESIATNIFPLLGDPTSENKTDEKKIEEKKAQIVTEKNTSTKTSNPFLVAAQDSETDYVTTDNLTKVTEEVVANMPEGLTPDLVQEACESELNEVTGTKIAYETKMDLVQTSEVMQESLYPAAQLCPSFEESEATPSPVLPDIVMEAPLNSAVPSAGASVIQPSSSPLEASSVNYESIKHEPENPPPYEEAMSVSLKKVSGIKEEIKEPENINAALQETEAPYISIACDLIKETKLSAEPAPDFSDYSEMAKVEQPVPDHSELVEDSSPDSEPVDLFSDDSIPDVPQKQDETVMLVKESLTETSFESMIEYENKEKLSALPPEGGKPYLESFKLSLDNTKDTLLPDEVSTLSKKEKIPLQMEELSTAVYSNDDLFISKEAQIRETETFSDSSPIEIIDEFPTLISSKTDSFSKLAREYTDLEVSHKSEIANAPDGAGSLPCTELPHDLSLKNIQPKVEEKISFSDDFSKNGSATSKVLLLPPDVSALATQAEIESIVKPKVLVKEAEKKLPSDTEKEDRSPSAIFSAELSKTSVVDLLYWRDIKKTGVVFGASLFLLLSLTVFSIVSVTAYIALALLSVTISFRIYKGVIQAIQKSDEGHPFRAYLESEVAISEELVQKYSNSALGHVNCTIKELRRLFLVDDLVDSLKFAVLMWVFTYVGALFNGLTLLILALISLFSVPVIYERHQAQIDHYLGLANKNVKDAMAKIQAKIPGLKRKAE
The following applies: HeLa; protein RTN4.

The mark [7] stands for this setting: HeLa, protein NCBP2 (NUCLEAR CAP-BINDING PROTEIN SUBUNIT 2).

Read-outs that look alike come from different tables or passages of the source.

The values below come from paper PMC6199744, “Development of Chemical Proteomics for the Folateome and Analysis of the Kinetoplastid Folateome” (ACS Infectious Diseases, 2018).

T5 sequence (P60953 whole entry): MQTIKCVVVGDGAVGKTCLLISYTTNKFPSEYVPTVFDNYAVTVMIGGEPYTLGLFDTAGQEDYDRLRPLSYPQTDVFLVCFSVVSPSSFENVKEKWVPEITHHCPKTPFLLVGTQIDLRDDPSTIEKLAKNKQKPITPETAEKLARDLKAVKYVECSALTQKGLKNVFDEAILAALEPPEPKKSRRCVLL
T4 sequence (P25786 whole entry): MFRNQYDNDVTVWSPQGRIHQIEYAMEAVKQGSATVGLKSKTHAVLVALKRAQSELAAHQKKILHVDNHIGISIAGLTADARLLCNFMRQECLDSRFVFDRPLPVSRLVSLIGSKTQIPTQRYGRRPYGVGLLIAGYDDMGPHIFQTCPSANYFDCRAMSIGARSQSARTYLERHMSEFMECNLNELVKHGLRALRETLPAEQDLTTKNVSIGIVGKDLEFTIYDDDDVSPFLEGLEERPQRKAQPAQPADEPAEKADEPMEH

As to `Nc1nc2c(c(=O)[nH]1)N(C=O)C(CNc1ccc(C(=O)N[C@@H](CCC(=O)O)C(=O)O)cc1)CN2` (some centres unmarked) [LEU, leucovorin], the “fold changes relative to vehicle control” value in assay [1] (setting [7]) is reported as 1.05; in assay [2] (HeLa, captured protein DDX1) it was 1.15.
In the case of `Nc1nc2[nH]cc(CCc3ccc(C(=O)N[C@@H](CCC(=O)O)C(=O)O)cc3)c2c(=O)[nH]1` [PTX, pemetrexed], the “fold changes relative to vehicle control” value in assay [1] was 0.91; in assay [2], 1.14.
In the case of `CCCCCCOc1ccc(Cc2cnc(N)nc2N)cc1` [compound 1], the “fold changes relative to vehicle control” value in assay [3] is reported as 1; in assay [4], 1.2; in assay [5] it was 1.11; in assay [6], 0.39.
The corresponding values for `CCCCCCOc1cccc(Cc2cnc(N)nc2N)c1` [compound 2] are 1.02, 1.36, 1.45 and 1.21.
Take `Nc1nc2cccc(-c3ccccc3)c2n1Cc1ccc(Cl)c(Cl)c1` [compound 3]: the “fold changes relative to vehicle control” value amounted to 0.88 in assay [3], 0.97 in assay [4], 0.99 in assay [5] and 1 in assay [6].
In the case of `NCCOCCOCC(=O)Nc1nc2ncc(CNc3ccc(C(=O)NC(CCC(=O)O)C(=O)O)cc3)nc2c(=O)[nH]1` (centres unmarked) [compound 6], the “fold changes relative to vehicle control” value in assay [1] (setting [7]) was 0.91; in assay [2] (HeLa, captured protein DDX1) it was 1.12.
In the same order, the values of `NCCCNc1ccc(C(=O)NC(CCC(=O)O)C(=O)O)cc1` (centres unmarked) [compound 7] are 0.95 and 1.11.
